Assay results published in patent publication US20130116277A1, “ALDO-KETO REDUCTASE SUBFAMILY 1C3 (AKR1C3) INHIBITORS” (priority 2007, published 2013).
“And” between values parts separate entries of the source, which are not always exact repeats. Equal entries are not always repeated. Where two headings read alike, the source gives them in different places.

Key:
ER-alpha = biological target: T1, ER-alpha (Homo sapiens, UniProt P03372); assay: ER-alpha transactivation (ERE-LUC luciferase) in HEK-293 cells; type: cell-based; conditions: for EC50: read-out: Agonist ER-α; for IC50: antagonist mode, in combination with estradiol, read-out: Antagonist ER-α;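 as to all read-outs here: HEK-293 cells co-transfected with an ER-alpha expression plasmid, an ERE-driven firefly luciferase reporter and a CMV Renilla control, with the firefly signal normalized to Renilla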
T1 construct: expressed in transfected cells; host or cells: HEK-293
T1 sequence (P03372 1-595): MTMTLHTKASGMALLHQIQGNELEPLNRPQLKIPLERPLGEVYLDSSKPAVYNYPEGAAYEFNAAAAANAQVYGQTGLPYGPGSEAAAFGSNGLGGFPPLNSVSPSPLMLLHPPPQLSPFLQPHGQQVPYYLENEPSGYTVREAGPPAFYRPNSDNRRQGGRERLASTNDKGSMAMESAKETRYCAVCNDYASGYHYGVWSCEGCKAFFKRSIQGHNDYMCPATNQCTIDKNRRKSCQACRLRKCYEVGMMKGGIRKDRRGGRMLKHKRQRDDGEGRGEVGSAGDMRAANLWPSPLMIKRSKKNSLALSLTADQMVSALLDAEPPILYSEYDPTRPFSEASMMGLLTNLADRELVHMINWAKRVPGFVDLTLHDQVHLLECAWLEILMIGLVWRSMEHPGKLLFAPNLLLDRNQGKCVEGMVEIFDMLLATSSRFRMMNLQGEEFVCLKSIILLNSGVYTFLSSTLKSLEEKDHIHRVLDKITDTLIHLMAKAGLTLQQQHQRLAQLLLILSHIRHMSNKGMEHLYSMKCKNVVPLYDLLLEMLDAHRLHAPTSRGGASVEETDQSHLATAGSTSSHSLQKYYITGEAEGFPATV

ER-α = biological target: T2, ER-α (Homo sapiens, UniProt P03372); assay: ER-α ligand binding domain competitive binding with [3H]Estradiol
T2 sequence (P03372 311-547 limits assumed): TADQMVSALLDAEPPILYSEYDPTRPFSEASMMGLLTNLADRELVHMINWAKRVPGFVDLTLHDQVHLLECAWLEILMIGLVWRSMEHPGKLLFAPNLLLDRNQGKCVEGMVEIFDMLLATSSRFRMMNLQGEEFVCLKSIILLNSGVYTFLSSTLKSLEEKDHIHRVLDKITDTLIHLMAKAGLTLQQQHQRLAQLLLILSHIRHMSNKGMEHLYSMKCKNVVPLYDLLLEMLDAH

ER-β = ER-β (Homo sapiens, UniProt Q92731); assay: ER-β ligand binding domain competitive binding with [3H]Estradiol
Chain of ER-β (Q92731 264-498 limits assumed, species assumed): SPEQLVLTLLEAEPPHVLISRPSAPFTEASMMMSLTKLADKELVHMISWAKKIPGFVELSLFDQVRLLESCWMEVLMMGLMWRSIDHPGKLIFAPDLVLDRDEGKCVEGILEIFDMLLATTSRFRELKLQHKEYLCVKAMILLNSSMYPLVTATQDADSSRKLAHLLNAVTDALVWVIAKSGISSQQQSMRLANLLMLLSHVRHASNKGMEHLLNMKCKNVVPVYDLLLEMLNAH

AKR1C3 [1] = biological target: T3, AKR1C3 (Homo sapiens, UniProt P42330); assay: Purified AKR1C3 enzyme assay, [14C]-A'dione to testosterone, TLC based; type: biochemical; design: GST (N); made in house; host or cells: bacterial culture, IPTG induced (E. coli BL21-DE3 is named only for the crystallography preparation)
T3 sequence (P42330 1-323): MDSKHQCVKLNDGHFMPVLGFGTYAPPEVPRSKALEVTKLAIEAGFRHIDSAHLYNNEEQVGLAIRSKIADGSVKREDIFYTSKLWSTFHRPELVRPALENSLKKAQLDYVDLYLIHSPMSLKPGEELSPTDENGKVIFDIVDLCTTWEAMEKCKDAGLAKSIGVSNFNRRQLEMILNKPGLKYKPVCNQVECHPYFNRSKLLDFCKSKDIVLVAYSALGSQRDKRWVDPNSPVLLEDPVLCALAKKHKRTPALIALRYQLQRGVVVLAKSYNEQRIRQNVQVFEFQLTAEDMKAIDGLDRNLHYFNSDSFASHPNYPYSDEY
Method: Perkin Elmer; […] American Radiolabeled Chemicals, St. Louis, Mo.). The reaction was stopped by the addition of 400 μl ethyl acetate, vortexed, and spun for […] at 2000 rpm. The upper layer was transferred to a new tube and air dried. The pellet was resuspended in 25 μl of methanol, spotted on TLC plates and fractionated in TLC chamber with 3:1 chloroform:ethyl acetate. Once the mobile phase reached the top, the plates were dried and exposed to a phosphoimager screen overnight. […] Perkin Elmer) was incubated at 37° C. for 60 min. The reaction was stopped by the addition of 400 μl ethyl acetate, vortexed, and spun for […] at 2000 rpm. The upper layer was transferred to a new tube and air dried. The pellet was resuspended in 25 μl of methanol, spotted on TLC plates and fractionated in TLC chamber with 3:1 chloroform:ethyl acetate. Once the mobile phase reached the top, the plates were dried and exposed to a phosphoimager screen overnight.

ER-beta = biological target: T4, ER-beta (Homo sapiens, UniProt Q92731); assay: ER-beta transactivation (ERE-LUC luciferase) in HEK-293 cells; type: cell-based; conditions: for EC50: read-out: Agonist ER-β; for IC50: antagonist mode, in combination with estradiol, read-out: Antagonist ER-β;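 as to all read-outs here: HEK-293 cells transiently transfected with an ER-β expression plasmid and ERE-LUC reporter, firefly luciferase read-out normalized to co-transfected Renilla luciferase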
T4 construct: expressed in transfected cells; host or cells: HEK-293
T4 sequence (Q92731 whole entry, species assumed): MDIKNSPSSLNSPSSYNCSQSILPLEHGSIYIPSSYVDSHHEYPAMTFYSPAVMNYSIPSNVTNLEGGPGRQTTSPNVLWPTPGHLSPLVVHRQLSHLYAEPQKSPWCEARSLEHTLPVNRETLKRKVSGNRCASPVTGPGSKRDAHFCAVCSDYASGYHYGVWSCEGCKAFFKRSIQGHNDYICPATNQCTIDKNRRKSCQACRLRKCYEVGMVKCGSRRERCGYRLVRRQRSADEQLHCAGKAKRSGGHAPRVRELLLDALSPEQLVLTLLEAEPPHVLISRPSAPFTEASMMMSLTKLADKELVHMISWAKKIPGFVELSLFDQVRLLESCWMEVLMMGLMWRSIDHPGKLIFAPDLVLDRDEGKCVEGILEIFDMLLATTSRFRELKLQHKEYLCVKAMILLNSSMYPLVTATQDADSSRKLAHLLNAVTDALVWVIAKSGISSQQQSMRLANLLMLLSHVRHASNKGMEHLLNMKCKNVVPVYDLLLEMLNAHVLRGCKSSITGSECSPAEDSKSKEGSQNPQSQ

[2] = Liver microsome incubation (HLM Phase I and Phase I + II), LC-MS/MS; type: in vitro ADME, human; conditions: for microsomal CLint: human, human liver microsomes
Method: Stock solutions of prespective AKR1C3 inhibitors were prepared in DMSO at 5 mM and were incubated with liver microsomes (0.1 mg/mL). Incubations were conducted at 37° C. in a shaking water bath for 10 minutes (microsomes). Incubation durations were selected based on time course study (microsomes) or published literature (recombinant enzymes). Prepared samples were analyzed using LC-MS/MS.

AKR1C3 [3] = biological target: T3, AKR1C3; assay: cell-based
Method: AKR1C3 expression was checked by Western blot to ensure that the cells over-express AKR1C3. […] Medium was changed to RPMI+1% csFBS without phenol red and maintained in this medium for 3 days to reduce basal hormone levels. […] The data was plotted in SigmaPlot (Systat Software Inc.) and the IC50 values for inhibitors were calculated.
HEK-293 cells stably transfected with AKR1C3 were plated in 24 well plates and were maintained in RPMI+1% csFBS without phenol red for 2 days to reduce the basal steroid levels.

[4] = 10 μM inhibitor, purified AKR1C3 TLC based enzyme assay, read-out: AKR1C3 inhibition at 10 μM
[5] = read-out: % inhibition from control HSD-5 (10 uM)
[6] = HLM Phase I + II, read-out: HLM Phase I + II CLint
[7] = HLM Phase I, read-out: HLM Phase I CLint

| Compound | EC50 (ER-alpha; agonist mode, drug alone) | IC50 (ER-alpha) | Ki (ER-α) | Ki (ER-β) | inhibition at 10 µM (AKR1C3 [1]; [4]) | inhibition at 10 µM (AKR1C3 [1]; [5]) | EC50 (ER-beta; agonist mode, drug alone) | IC50 (ER-beta) | HLM Phase I CLint ([2]; HLM Phase I) | HLM Phase I T-1/2 ([2]; HLM Phase I) | HLM Phase I + II T-1/2 ([2]; HLM Phase I + II) | microsomal CLint [2, 6] | microsomal CLint [2, 7] | IC50 (AKR1C3 [3]) | HLM Phase I + II CLint ([2]; HLM Phase I + II) | Agonist ER-α (ER-alpha; agonist mode, drug alone) | Agonist ER-β (ER-beta; agonist mode, drug alone) |
| --- | --- | --- | --- | --- | --- | --- | --- | --- | --- | --- | --- | --- | --- | --- | --- | --- | --- |
| O=c1c2ccc(O)cc2c(-c2ccc(O)cc2)cn1-c1ccc(O)cc1 [Compound 6, 6-hydroxy-2,4-bis(4-hydroxyphenyl)isoquinolin-1(2H)-one] | > 10000 nM | > 10000 nM | 1420 nM | 56.2 nM | 0% | 0% | > 10000 nM | 1950 nM | – | – | – | – | – | – | – | – | – |
| COc1ccc(-c2cn(-c3ccc(CO)cc3)c(=O)c3ccc(OC)cc23)cc1 [Compound 10, 2-(4-hydroxymethyl)phenyl-6-methoxy-4-(4-methoxyphenyl)-isoquinolin-1(2H)-one] | > 10000 nM | > 10000 nM | > 1510 nM | > 2200 nM | 17% | 17% | > 10000 nM | > 10000 nM | – | – | – | – | – | – | – | – | – |
| O=c1c2ccc(O)cc2c(-c2ccc(O)cc2)cn1-c1ccc(CBr)cc1 [Compound 11, 2-(4-bromomethyl)phenyl-6-hydroxy-4-(4-hydroxyphenyl)isoquinolin-1(2H)-one] | > 10000 nM | > 10000 nM | – | > 2200 nM | 55% | 55% | > 10000 nM | > 10000 nM | 119 µL/min/mg | 8.23 min and 5.90 min | 5.0 min | 138 µL/min/mg | 84.1 µL/min/mg | 5180 nM | – | – | – |
| O=c1c2ccc(O)cc2c(-c2ccc(O)cc2)cn1-c1ccc(CO)cc1 [Compound 14, 6-hydroxy-2-(4-(hydroxymethyl)phenyl)-4-(4-hydroxyphenyl)isoquinolin-1(2H)-one] | > 10000 nM | > 10000 nM | > 1510 nM | > 2200 nM | – | – | > 10000 nM | > 10000 nM | – | – | – | – | – | 1320 nM | – | – | – |
| COc1ccc(-c2cn(-c3ccc(O)cc3)c(=O)c3ccc(O)cc23)cc1 [Compound 15b] | > 10000 nM | > 10000 nM | 2100 nM | 252 nM | – | 47% | > 10000 nM | 128 nM | – | 28.3 min | 3.7 min | 188 µL/min/mg | 24.5 µL/min/mg | – | – | – | – |
| O=c1c2c(O)cc(O)cc2c(-c2ccccc2)cn1-c1ccc(O)cc1 [Compound 15h, 6,8-dihydroxy-2-(4-hydroxyphenyl)-4-phenylisoquinolin-1(2H)-one] | > 10000 nM | 2030 nM | – | 3.03 nM | – | 0% | > 10000 nM | 53.4 nM | – | 87.1 min | 11.4 min | 60.7 µL/min/mg | 7.9 µL/min/mg | 6640 nM | – | – | – |
| CCOC(=O)/C=C/c1cn(-c2ccc(OC)cc2)c(=O)c2c(O)cc(OC)cc12 [Compound 15j] | > 10000 nM | > 10000 nM | > 1510 nM | > 2200 nM | – | 10% | > 10000 nM | > 10000 nM | – | – | – | – | – | – | – | – | – |
| O=C(O)/C=C/c1cn(-c2ccc(O)cc2)c(=O)c2ccc(O)cc12 [Compound 15k] | – | – | > 151 nM | > 220 nM | – | 12% | – | – | – | – | – | – | – | – | – | – | – |
| O=C(O)/C=C/c1cn(-c2ccc(O)cc2)c(=O)c2c(O)cc(O)cc12 [Compound 15l, (E)-3-(6,8-dihydroxy-2-(4-hydroxyphenyl)-1-oxo-1,2-dihydroisoquinolin-4-yl)acrylic acid] | – | – | > 1510 nM | 613 nM | – | – | – | – | – | – | – | – | – | 1710 nM | – | – | – |
| O=c1c2ccc(O)cc2c(-c2ccc(C(F)(F)F)cc2)cn1-c1ccc(CBr)c(O)c1 [Compound 26, 2-(4-(bromomethyl)-3-hydroxyphenyl)-6-hydroxy-4-(4-(trifluoromethyl)phenyl)isoquinolin-1(2H)-one] | > 10000 nM | > 10000 nM | > 1510 nM | > 2200 nM | 50% | 50% | > 10000 nM | > 10000 nM | – | – | – | – | – | 289 nM | – | – | – |
| O=c1c2ccc(O)cc2c(-c2ccc(C(F)(F)F)cc2)cn1-c1ccc(C(F)(F)F)cc1 [Compound 30, 6-hydroxy-2,4-bis(4-(trifluoromethyl)phenyl)isoquinolin-1(2H)-one] | > 10000 nM | > 10000 nM | > 1510 nM | > 2200 nM | 30% | 30% | > 10000 nM | > 10000 nM | – | 102.3 min | 7.9 min | 88.1 µL/min/mg | 6.8 µL/min/mg | – | – | – | – |
| O=c1c2ccc(O)cc2c(-c2ccc(C(F)(F)F)cc2)cn1-c1ccc(F)cc1 [Compound 34, 2-(4-fluorophenyl)-6-hydroxy-4-(4-(trifluoromethyl)phenyl)isoquinolin-1(2H)-one] | > 10000 nM | > 10000 nM | > 1510 nM | > 2200 nM | 10% | 10% | > 10000 nM | > 10000 nM | – | – | – | – | – | – | – | – | – |
| COc1ccc(-n2cc(-c3ccc(C(F)(F)F)cc3)c3cc(OC)ccc3c2=O)cc1 [Compound 35, 6-methoxy-2-(4-methoxyphenyl)-4-(4-(trifluoromethyl)phenyl)isoquinolin-1(2H)-one] | > 10000 nM | > 10000 nM | > 1510 nM | > 2200 nM | 0% | 0% | > 10000 nM | > 10000 nM | – | – | – | – | – | – | – | – | – |
| O=c1c2c(O)cc(O)cc2c(Br)cn1-c1cccc(O)c1 [ZW-315-047] | – | 1720 nM | 503 nM | 7.23 nM | – | 30% | – | 2210 nM | 20.16 µL/min/mg and 19.5 µL/min/mg and 23.7 µL/min/mg | 41.58 min and 33.55 min and 35.5 min and 29.3 min | 1.56 min and 1.5 min | 442 µL/min/mg | 16 µL/min/mg | – | 460 µL/min/mg | Partial agonist | Partial agonist |
